Patent US20120165319A1, “INHIBITORS OF INTERLEUKIN-1 BETA CONVERTING ENZYME” (VERTEX PHARMACEUTICALS INCORPORATED, priority 1995, published 2012)
pIC50, pKi: −log10 of the molar value. Counter-ions that a name gives are not always drawn.

Tests used:
ICE = target: T1, ICE (Homo sapiens, UniProt P29466); assay: Enzyme assay with UV-visible substrate (visible ICE assay, Succinyl-Tyr-Val-Ala-Asp-pNitroanilide); assay type: biochemical
T1 sequence (P29466 120-297 limits assumed): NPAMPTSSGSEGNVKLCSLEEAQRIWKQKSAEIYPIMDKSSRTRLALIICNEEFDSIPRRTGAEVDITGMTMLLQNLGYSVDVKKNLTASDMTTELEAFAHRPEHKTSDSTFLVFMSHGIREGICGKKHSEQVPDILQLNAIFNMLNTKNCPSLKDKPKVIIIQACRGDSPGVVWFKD
T1 sequence (P29466 317-404 limits assumed): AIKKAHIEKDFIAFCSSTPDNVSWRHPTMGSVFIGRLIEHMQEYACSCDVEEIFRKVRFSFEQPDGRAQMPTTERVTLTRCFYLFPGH
Description: 1. Enzyme Assay with Uv-Visible Substrate
This assay is run using an Succinyl-Tyr-Val-Ala-Asp-pNitroanilide substrate. Synthesis of analogous substrates is described by L. A. Reiter (Int. J. Peptide Protein Res. 12, 87-96 (1994)). The assay mixture contains:
The visible ICE assay is run in a 96-well microtiter plate. Buffer, ICE and DMSO (if inhibitor is present) are added to the wells in the order listed. The components are left to incubate at room temperature for 15 minutes starting at the time that all components are present in all wells. The microtiter plate reader is set to incubate at 37° C. After the 15 minute incubation, substrate is added directly to the wells and the reaction is monitored by following the release of the chromophore (pNA) at 405-603 nm at 37° C. for 20 minutes. A linear fit of the data is performed and the rate is calculated in mOD/min. DMSO is only present during experiments involving inhibitors, buffer is used to make up the volume to 100 μl in the other experiments.
For determination of enzyme inhibition constants (Ki) or the mode of inhibition (competitive, uncompetitive or noncompetitive), the rate data determined in the enzyme assays at varying inhibitor concentrations are computer-fit to standard enzyme kinetic equations (see I. H. Segel, Enzyme Kinetics, Wiley-Interscience, 1975).

[1] = test system: IL-1β, human peripheral blood mononuclear cells (PBMC); assay: PBMC cell assay: IL-1β assay with human PBMC or enriched adherent mononuclear cells, LPS-stimulated; assay type: cell-based
Description: IL-1β Assay with a Mixed Population of Human Peripheral Blood Mononuclear Cells (PBMC) or Enriched Adherent Mononuclear Cells
Processing of pre-IL-1β by ICE can be measured in cell culture using a variety of cell sources. Human PBMC obtained from healthy donors provides a mixed population of lymphocyte subtypes and mononuclear cells that produce a spectrum of interleukins and cytokines in response to many classes of physiological stimulators. Adherent mononuclear cells from PBMC provides an enriched source of normal monocytes for selective studies of cytokine production by activated cells.
An initial dilution series of test compound in DMSO or ethanol is prepared, with a subsequent dilution into RPMI-10% FBS media (containing 2 mM L-glutamine, 10 mM HEPES, 50 U and 50 ug/ml pen/strep) respectively to yield drugs at 4× the final test concentration containing 0.4% DMSO or 0.4% ethanol. The final concentration of DMSO is 0.1% for all drug dilutions. A concentration titration which brackets the apparent Ki for a test compound determined in an ICE inhibition assay is generally used for the primary compound screen.
Generally 5-6 compound dilutions are tested and the cellular component of the assay is performed in duplicate, with duplicate ELISA determinations on each cell culture supernatant.
PBMC Isolation and IL-1 Assay:
Buffy coat cells isolated from one pint human blood (yielding 40-45 ml final volume plasma plus cells) are diluted with media to 80 ml and LeukoPREP separation tubes (Becton Dickinson) are each overlaid with 10 ml of cell suspension. After 15 min centrifugation at 1500-1800×g, the plasma/media layer is aspirated and then the mononuclear cell layer is collected with a Pasteur pipette and transferred to a 15 ml conical centrifuge tube (Corning). Media is added to bring the volume to 15 ml, gently mix the cells by inversion and centrifuge at 300×g for 15 min. Resuspend the PBMC pellet in a small volume of media, count cells and adjust to 6×10^6 cells/ml.
For the cellular assay, 1.0 ml of the cell suspension is added to each well of a 24-well flat bottom tissue culture plate (Corning), 0.5 ml test compound dilution and 0.5 ml LPS solution (Sigma #L-3012; 20 ng/ml solution prepared in complete RPMI media; final LPS concentration 5 ng/ml). The 0.5 ml additions of test compound and LPS are usually sufficient to mix the contents of the wells. Three control mixtures are run per experiment, with either LPS alone, solvent vehicle control, and/or additional media to adjust the final culture volume to 2.0 ml. The cell cultures are incubated for 16-18 hr at 37° C. in the presence of 5% CO2.
At the end of the incubation period, cells are harvested and transferred to 15 ml conical centrifuge tubes. After centrifugation for 10 min at 200×g, supernatants are harvested and transferred to 1.5 ml Eppendorf tubes. It may be noted that the cell pellet may be utilized for a biochemical evaluation of pre-IL-1β and/or mature IL-1β content in cytosol extracts by western blotting or ELISA with pre-IL-1β specific antisera.
Isolation of Adherent Mononuclear Cells:
PBMC are isolated and prepared as described above. Media (1.0 ml) is first added to wells followed by 0.5 ml of the PBMC suspension. After a one hour incubation, plates are gently shaken and nonadherent cells aspirated from each well. Wells are then gently washed three times with 1.0 ml of media and final resuspended in 1.0 ml media. The enrichment for adherent cells generally yields 2.5−3.0×10^5 cells per well. The addition of test compounds, LPS, cell incubation conditions and processing of supernatants proceeds as described above.
We have used Quantikine kits (R&D Systems) for measurement of mature IL-1β. Assays are performed according to the manufacturer's directions. Mature IL-1β levels of about 1-3 ng/ml in both PBMC and adherent mononuclear cell positive controls are observed. […]

[2] = Homo sapiens, PBMC, * = values obtained upon reassay

Row | pKi (ICE; Table 5) | pKi (ICE; Table 17) | SMILES | pIC50 [1, 2] | pIC50 ([1]; * = values obtained upon reassay) | pIC50 ([1]; Homo sapiens, PBMC, Table 17)
1 | 6.32 | – | CC(C)CC(=O)N1C[C@H](NC(=O)c2ccccc2)C(=O)N(CC(=O)N[C@H](C=O)CC(=O)O)c2ccccc21 [Compound 605f, (3S)-3-[(3S)-2-Oxo-3-benzoylamino-5-(3-methylbutyryl)-2,3,4,5-tetrahydro-1H-1,5-benzodiazepin-1-acetylamino]-4-oxo-butyric acid] | 4.90 | – | –
2 | 6.78 | – | CC(=O)CC(=O)N1C[C@H](NC(=O)c2ccccc2)C(=O)N(CC(=O)N[C@H](C=O)CC(=O)O)c2ccccc21 [Compound 605g, (3S)-3-[(3S)-2-Oxo-3-benzoylamino-5-acetoacetyl-2,3,4,5-tetrahydro-1H-1,5-benzodiazepin-1-acetylamino]-4-oxo-butyric acid] | 4.65 | – | –
3 | 6.34 | – | COC(=O)C(=O)N1C[C@H](NC(=O)c2ccccc2)C(=O)N(CC(=O)N[C@H](C=O)CC(=O)O)c2ccccc21 [Compound 605h, (3S)-3-[(3S)-2-oxo-3-benzoylamino-5-methyloxalkyl-2,3,4,5-tetrahydro-1H-1,5-benzodiazepin-1-acetylamino]-4-oxo-butyric acid] | < 4.60 | – | –
4 | 6.17 | – | CC(=O)C(=O)N1C[C@H](NC(=O)c2ccccc2)C(=O)N(CC(=O)N[C@H](C=O)CC(=O)O)c2ccccc21 [Compound 605i, (3S)-3-[(3S)-2-Oxo-3-benzoylamino-5-acetylcarbonyl-2,3,4,5-tetrahydro-1H-1,5-benzodiazepin-1-acetylamino]-4-oxo-butyric acid] | < 4.70 | – | –
5 | 6.19 | – | CS(=O)(=O)N1C[C@H](NC(=O)c2ccccc2)C(=O)N(CC(=O)N[C@H](C=O)CC(=O)O)c2ccccc21 [Compound 605m, (3S)-3-[(3S)-2-Oxo-3-benzoylamino-5-methanesulfonyl-2,3,4,5-tetrahydro-1H-1,5-benzodiazepin-1-acetylamino]-4-oxo-butyric acid] | 4.70 | – | –
6 | 6.82 | – | O=C[C@H](CC(=O)O)NC(=O)CN1C(=O)[C@@H](NC(=O)c2ccccc2)CN(C(=O)Cc2ccncc2)c2ccccc21 [Compound 605s, (3S)-3-[(3S)-2-Oxo-3-benzoylamino-5-(4-pyridylacetyl)-2,3,4,5-tetrahydro-1H-1,5-benzodiazepin-1-acetylamino]-4-oxo-butyric acid] | 5.22 | – | –
7 | 5.96 | – | O=CC(CC(=O)O)NC(=O)CN1C(=O)[C@@H](NCc2ccccc2)CN(C(=O)CCc2ccccc2)c2ccccc21 (stereo partly drawn) [Compound 605v, (3S)3-[(3S)2-Oxo-3-benzylamino-5-(3-phenylpropionyl)-2,3,4,5-tetrahydro-1H-1,5-benzodiazepin-1-acetylamino]-4-oxo-butyric acid trifluoroacetic acid salt] | < 4.52 | – | –
8 | 6.94 | – | O=C(O)C[C@H](NC(=O)CN1C(=O)[C@@H](NC(=O)CCc2ccccc2)CN(C(=O)CCc2ccccc2)c2ccccc21)C(=O)c1nc2cc(Cl)cc(Cl)c2o1 [Compound 609a, (3S)-3-[(3S)-2-Oxo-3-(3-phenylpropionylamino)-5-(3-phenylpropionyl)-2,3,4,5-tetrahydro-1H-1,5-benzodiazepin-1-acetylamino]-4-(5,7-dichlorobenzoxazol-2-yl)-4-oxo-butyric acid] | < 4.52 | – | –
9 | 7.57 | – | CC(=O)N1C[C@H](NC(=O)c2ccccc2)C(=O)N(CC(=O)N[C@@H](CC(=O)O)C(=O)c2nc3cc(Cl)cc(Cl)c3o2)c2ccccc21 [Compound 609b, (3S)-3-[(3S)-2-Oxo-3-benzoylamino-5-acetyl-2,3,4,5-tetrahydro-1H-1,5-benzodiazepin-1-acetylamino]-4-(5,7-dichlorobenzoxazol-2-yl)-4-oxo-butyric acid] | < 4.70 | – | –

Continued, molecule first:

Row | SMILES | pKi (ICE; Table 5) | pKi (ICE; Table 17) | pIC50 [1, 2] | pIC50 ([1]; * = values obtained upon reassay) | pIC50 ([1]; Homo sapiens, PBMC, Table 17)
10 | O=C[C@H](CC(=O)O)NC(=O)[C@@H]1CCCN2C(=O)CC[C@H](NC(=O)c3ccc4ccccc4c3O)C(=O)N12 [Compound 449] | 7.92 | – | 5.82 | – | –
11 | COc1cccc(C(=O)N[C@H]2CCC(=O)N3CCC[C@@H](C(=O)N[C@H](C=O)CC(=O)O)N3C2=O)c1 [Compound 451] | 8.40 | – | 5.74 | – | –
12 | O=C[C@H](CC(=O)O)NC(=O)[C@@H]1CCCN2C(=O)CC[C@H](NC(=O)c3cccnc3)C(=O)N12 [Compound 454] | 7.35 | – | 5.60 | – | –
13 | O=C[C@H](CC(=O)O)NC(=O)[C@@H]1CCCN2C(=O)CC[C@H](NC(=O)c3ccc(F)c(F)c3)C(=O)N12 [Compound 458] | 7.70 | – | 5.54 | – | –
14 | O=C[C@H](CC(=O)O)NC(=O)[C@@H]1CCCN2C(=O)CC[C@H](NC(=O)c3ccc(F)c(Cl)c3)C(=O)N12 [Compound 459] | 8.30 | – | 5.74 | – | –
15 | O=C[C@H](CC(=O)O)NC(=O)[C@@H]1CCCN2C(=O)CC[C@H](NC(=O)c3ccc(F)cc3)C(=O)N12 [Compound 463] | 7.85 | – | 5.62 | 5.55 | –
16 | O=C[C@H](CC(=O)O)NC(=O)[C@@H]1CCCN2C(=O)CC[C@H](NC(=O)c3ccc(Cl)c(Cl)c3)C(=O)N12 [Compound 464] | 8.60 | – | 6.00 | – | –
17 | O=C[C@H](CC(=O)O)NC(=O)[C@@H]1CCCN2C(=O)CC[C@H](NC(=O)c3cc4ccccc4o3)C(=O)N12 [Compound 467] | 7.96 | – | 5.72 | – | –
18 | O=C[C@H](CC(=O)O)NC(=O)[C@@H]1CCCN2C(=O)CC[C@H](NC(=O)c3ccc(CO)cc3)C(=O)N12 [Compound 479] | 7.82 | – | 6.05 | – | –
19 | CC(=O)Nc1ccc(C(=O)N[C@H]2CCC(=O)N3CCC[C@@H](C(=O)N[C@H](C=O)CC(=O)O)N3C2=O)cc1NC(C)=O [Compound 480] | 7.60 | – | 5.64 | – | –
20 | COC(=O)Nc1ccc(C(=O)N[C@H]2CCC(=O)N3CCC[C@@H](C(=O)N[C@H](C=O)CC(=O)O)N3C2=O)cc1 [Compound 490] | 8.37 | – | 6.00 | – | –
21 | O=C[C@H](CC(=O)O)NC(=O)[C@@H]1CCCN2C(=O)CC[C@H](NC(=O)c3ccc(OC(=O)c4ccccc4)cc3)C(=O)N12 [Compound 491] | 8.30 | – | 5.60 | – | –
22 | CNCC(=O)N1C[C@H](NC(=O)c2cccc3ccccc23)C(=O)N(CC(=O)N[C@H](C=O)CC(=O)O)c2ccccc21 [Compound 650, (3S)-3-[(3S)-2-Oxo-3-(1-naphthoyl)amino-5-(2-methylamino)acetyl-2,3,4,5-tetrahydro-1H-1,5-benzodiazepine-1-acetylamino]-4-oxo-butyric acid] | – | 6.26 | – | – | 5.40
